Values of other authors in article PMC4237557 (Diabetes, Obesity & Metabolism, 2014).

Experiments:
[1] = tested on: insulin-like growth factor 1 receptor (IGF-1R); settings: in vitro
[2] = in vitro

Row | Affinity for IGF-1R compared with human insulin [1] | Substance | Glucose-lowering potency compared with parent glargine (M0) | Mitogenicity compared with endogenous human insulin [2]
1 | lower affinity | 21^A-Gly-des-30^B-Thr-human insulin [M2] |  | 
2 | lower affinity | 21^A-Gly-human insulin [M1] | equal glucose-lowering potency | does not exhibit an increased affinity for IGF-1R or increased mitogenicity
